Reference: publication PMC12311729, “Probing the Mechanism of L‑DOPA 2,3-Dioxygenase Using Synthetic Derivatives of 3,4-Dihydroxyhydrocinnamic Acid” (ACS Omega, 2025)

Experiments:
[1] = set-up: method as in Biochemistry 2021, 60, 32, 2492–2507; conditions: percentage of L-DOPA; ref Biochemistry 2021, 60, 32, 2492–2507; cited from earlier work
[2] = biological target: L-DOPA 2,3-dioxygenase from S. hygroscopicus jingganensis (ShjDDO) (Streptomyces hygroscopicus, UniProt H2JL11); set-up: method as in Biochemistry 2021, 60, 32, 2492–2507; conditions: percentage of L-DOPA; ref Biochemistry 2021, 60, 32, 2492–2507; cited from earlier work
Sequence of L-DOPA 2,3-dioxygenase from S. hygroscopicus jingganensis (ShjDDO) (H2JL11 1-162): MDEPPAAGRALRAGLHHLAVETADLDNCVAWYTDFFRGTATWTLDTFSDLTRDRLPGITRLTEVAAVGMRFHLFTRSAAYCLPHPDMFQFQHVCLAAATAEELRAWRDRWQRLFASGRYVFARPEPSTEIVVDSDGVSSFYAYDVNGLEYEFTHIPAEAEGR

[3] = biological target: L-DOPA 2,3-dioxygenase from S. lincolnensis (LmbB1) (Streptomyces lincolnensis, UniProt Q54354); set-up: method as in Biochemistry 2021, 60, 32, 2492–2507; conditions: percentage of L-DOPA; ref Biochemistry 2021, 60, 32, 2492–2507; cited from earlier work
[4] = set-up: method as in Biochemistry 2021, 60, 32, 2492–2507; conditions: ref Biochemistry 2021, 60, 32, 2492–2507, cited from earlier work; for Catecholic pKa value relative to L-DOPA x 100: percentage of L-DOPA
[5] = set-up: method as in Biochemistry 2021, 60, 32, 2492–2507; conditions: percentage of L-DOPA; ref Biochemistry 2021, 60, 32, 2492–2507; cited from earlier work; remark: listed apart in the source
[6] = Cyclic voltammetry (redox potentials on a GCE); type: physicochemical; conditions: GCE (d = 2 mm)
Description: Reduction and oxidation potentials were experimentally performed by cyclic voltammetry (CV) at biological pH 7.4, as previously described. All samples were run on a CH Instruments 600E Potentiostat in a one-compartment cell equipped with a three-electrode system arrangement. The three-electrode system included a saturated calomel electrode as the reference electrode, a platinum wire as the auxiliary electrode, and a glassy carbon electrode (GCE, d = 2 mm) as the working electrode. The GCE was polished between each sample scan with an aqueous slurry of alumina powder on a microcloth pad. The electrodes were rinsed with distilled water prior to the next scan. All scans were conducted under nitrogen for oxygen displacement and at room temperature (rt, 25 ± 1 °C). All samples were prepared as close to the scan as possible (approximately 2 min each). Each sample (5 mL) contained 0.1 mM catecholic substrate and 1 μM DMSO in 0.1 M phosphate buffer at a pH of 7.4 or 6.0. […] The cyclic voltammograms for the compounds at both pH 6.0 and 7.4 are available in Figures S40–S51.

[7] = Determination of pKa values by spectrophotometric titration; conditions: first catecholic deprotonation; determined spectroscopically from pH 3 to 12.5
Procedure: A buffer system utilizing five different buffers was prepared to cover the pH range of 3.0 to 12.50. A Thermo Scientific Orion Star A211 pH meter was used to measure and determine the pH of each buffer. The pH meter was calibrated using three- and four-point calibration with pH values of 4.00, 7.01, and 10.01 and 4.00, 7.01, 10.01, and 12.00, respectively.
The buffer systems were prepared as previously described and included: NaOAc/HOAc buffers (C = 0.1 M; I = 0.1 M) were used to cover the pH range of 3.0 to 5.50. KH2PO4/K2HPO4 buffers (C = 0.05 M; I = 0.1 M) were used to cover the pH range of 6.00 to 8.00. CHES buffers (C = 0.05 M; I = 0.1 M) were used to cover the pH range of 8.50 to 10.50. Na2HPO4/Na3PO4 buffers (C = 0.05 M; I = 0.1 M) were used to cover the pH range of 11.00 to 12.00. KCl buffers (C = 0.1 M; I = 0.1 M) were used to cover the pH range of 12.00 to 12.50.
The absorbance spectra of the compounds were determined at each pH as previously described. Briefly, a stock solution was prepared for each compound by weighing 2 mg of the compound using a high-precision analytical balance. Each compound was then dissolved in DMSO at a concentration of 10 mM. A UV-transparent 96-well microplate (Corning clear acrylic 96-well UV plate with a UV-transparent flat bottom) was loaded with 196 μL of buffer solution and 4 μL of the catechol stock in each well to get a final concentration of 200 μM. DMSO (4 μL) was added to 196 μL of the appropriate buffer to produce a blank solution for each buffer.
The 96-well plate was loaded into the microplate reader and incubated at 30 °C and shaken for 10 min before the reading. Absorbance readings were completed by using a Synergy HTX 15032517 microplate reader. Each well was read at wavelengths from 210 to 600 nm with 2-nm increments for each scan over a duration of 60 min.
The data were analyzed as previously described. Raw UV-spectra scans were exported to the Excel program. They were first processed by subtracting the reading of the blank solutions from the reading of each compound at the corresponding wavelengths. […] Finally, the spectral difference between the pH 3.0 buffer and the spectra at all other pH values was plotted. Additionally, the spectral difference between the pH 4.0 buffer and the spectra at all other higher pH values was plotted. The wavelengths for the maximum positive and negative absorbance were determined by using the graphs of the spectral difference plots, both for the pH 3.0 and pH 4.0 spectral difference plots. The absolute maximum positive and total absorbance differences at these chosen wavelengths were plotted against the pH of each buffer. The data were imported into the Origin 6.0 program, and the pK a values were determined with a nonlinear regression using eq : 1 Absorbancetotal=εHA−εA−[10^(pH−pKa)]/1+10^(pH−pKa)×[St]
εHA is the extinction coefficients of the acid form of the compound, and εA ^– is the extinction coefficient of the base form of the compound (i.e., the minima and maxima of the absorbance difference curve, respectively), and [S t] is the total compound concentration.

[8] = test system: O=C(O)CCc1cc(O)c(O)cc1Br; assay: UV-visible steady-state assay of L-DOPA 2,3-dioxygenase (ShjDDO); type: biochemical, Streptomyces hygroscopicus jingganensis; conditions: other: S. hygroscopicus jingganensis enzyme
Procedure: (§1) Purified, reconstituted L-DOPA 2,3-dioxygenases were assessed for activity by monitoring the cleavage of catecholic substrates using UV–visible spectroscopy. 3,4-Dihydroxyhydrocinnamic acid (DHHCA, 3) was purchased from Sigma-Aldrich. 6-CyanoDHHCA (5) and 6-bromoDHHCA (4) were synthesized as described above.
(§2) Molecular oxygen (AirGas) was bubbled directly into the reaction buffer through a glass-bonded silica gas diffuser (Bubblemac Industries, Inc.) or as a gas mixture blended with air (AirGas). Solutions were bubbled with oxygen for several minutes prior to use and for the duration of the experiment. To determine the K M for oxygen (i.e., K MO2), L-DOPA 2,3-dioxygenases (0.25–4.0 μM) were reacted with a saturating concentration of the catecholic substrate DHHCA/6-X-DHHCA derivatives (2–10× the K M sufficient to achieve k cat) and various oxygen concentrations (21–100% or 270–1300 μM at 22 °C). The concentration of oxygen was varied by changing the percentage of oxygen in the blend using a galvanic oxygen sensor and oxygen monitor (AirGas) and then bubbling solutions, as described above. Molecular oxygen percentages were converted to molar concentrations using a reference temperature of 22 °C. The reaction of L-DOPA 2,3-dioxygenases with DHHCA/6-X-DHHCA derivatives as a function of oxygen concentration was followed by the appearance of the steady-state cleavage product by using UV–visible spectroscopy.
(§3) The extinction coefficients for steady-state cleavage products of DHHCA and synthetic 6-X-DHHCA derivatives were determined by reacting various concentrations of DHHCA/6-X-DHHCA derivatives at 22 °C with a 10-fold stoichiometric excess of enzyme (quantified by Fe^II–see Reconstitution) in 50 mM HEPES buffer with 154 mM NaCl at pH 7.5, bubbled with 100% oxygen to a final concentration of 780–910 μM, depending on the volume of oxygenated buffer that comprised the reaction (60–70%). Substrate solutions were prepared from authentic synthetic standards using an analytical balance, and reactions were run to completion as assessed by the appearance of the steady-state product. The λmax and extinction coefficients of DHHCA, 6-cyanoDHHCA, and 6-bromoDHHCA were determined herein as ε380 = 40 740 ± 820 M^–1cm^–1, ε385 = 33 256 ± 484 M^–1cm^–1, and ε380 = 35 282 ± 1190 M^–1cm^–1, respectively (Figure S52).
(§4) Steady-state kinetic data were obtained through a UV–visible spectroscopic assay. Initial rates were obtained from the slopes of the linear regions of the progress curves and plotted versus substrate concentration to yield a hyperbola, which was analyzed using the Michaelis–Menten expression and nonlinear least-squares fitting (NLSF) with Origin 6.0 (Microcal). Two possible derivations of the Michaelis–Menten expression were used: 1) the traditional expression y = k cat × x/(K M + x), where y is Rate/E 0 or the rate of product formation (μM/min) divided by the starting enzyme concentration (μM), x is substrate concentration (μM) and k SP (also known as k cat × K M ^–1)–that is, the second-order rate constant of enzyme and substrate–is extracted from the fitted constants; or 2) the alternative derivation that extracts k SP and k cat directly from the fit: y = (k SP × x)/((1 + k SP × x)/k cat), and where y is Rate/E 0 or the rate of product formation (μM/min) divided by the starting enzyme concentration (μM), x is substrate concentration (μM), k SP is equivalent to k cat×K M ^–1, and K M is extracted from k cat/k cat×K M ^–1.

[9] = test system: O=C(O)CCc1ccc(O)c(O)c1; assay: as above; type: biochemical, Streptomyces hygroscopicus jingganensis; conditions: other: S. hygroscopicus jingganensis enzyme
Procedure: as §1, §2, §3, §4

[10] = test system: N#Cc1cc(O)c(O)cc1CCC(=O)O; assay: as above; type: biochemical, Streptomyces hygroscopicus jingganensis; conditions: other: S. hygroscopicus jingganensis enzyme
Procedure: as §1, §2, §3, §4

[11] = substrate: O=C(O)CCc1ccc(O)c(O)c1; assay: UV-visible steady-state assay of L-DOPA 2,3-dioxygenase (LmbB1); type: biochemical, Streptomyces lincolnensis; conditions: other: S. lincolnensis enzyme, pH 7.5, 22 °C
Procedure: as §1
as §2, with “Molecular oxygen percentages were converted to molar concentrations using a reference temperature of 22 °C. The reaction of L-DOPA 2,3-dioxygenases with DHHCA/6-X-DHHCA derivatives as a function of oxygen concentration was followed by the appearance of the steady-state cleavage product by using UV–visible spectroscopy.” left out
as §3, with “S52). […]” for “S52).”

[12] = substrate: N#Cc1cc(O)c(O)cc1CCC(=O)O; assay: as above; type: biochemical, Streptomyces lincolnensis; conditions: other: S. lincolnensis enzyme, pH 7.5, 22 °C
Procedure: as §1
as §2, with “Molecular oxygen percentages were converted to molar concentrations using a reference temperature of 22 °C. The reaction of L-DOPA 2,3-dioxygenases with DHHCA/6-X-DHHCA derivatives as a function of oxygen concentration was followed by the appearance of the steady-state cleavage product by using UV–visible spectroscopy.” left out
as §3, with “S52). […]” for “S52).”

[13] = substrate: O=C(O)CCc1cc(O)c(O)cc1Br; assay: as above; type: biochemical, Streptomyces lincolnensis; conditions: other: S. lincolnensis enzyme, pH 7.5, 22 °C
Procedure: as §1
as §2, with “Molecular oxygen percentages were converted to molar concentrations using a reference temperature of 22 °C. The reaction of L-DOPA 2,3-dioxygenases with DHHCA/6-X-DHHCA derivatives as a function of oxygen concentration was followed by the appearance of the steady-state cleavage product by using UV–visible spectroscopy.” left out
as §3, with “S52). […]” for “S52).”

[14] = saturating catecholic substrate, 22 °C, pH 7.5

N#Cc1cc(O)c(O)cc1CCN [Compound 6-cyanoDA]
E1/2 (mV) at pH 7.4 relative to L-DOPA x 100 [1]: 129% | kSP, O2 (μM^-1 min^-1) at pH 7.5 relative to L-DOPA x 100 for ShjDDO [2]: 3% | kSP, O2 (μM^-1 min^-1) at pH 7.5 relative to L-DOPA x 100 for LmbB1 [3]: 16% | Catecholic pKa value relative to L-DOPA x 100 [4]: 80% | pK a value of dopamine counterpart ([4]; similarly 6-substituted dopamine): 7.03 ± 0.06 | CSEV (Å^3) relative to L-DOPA x 100 [5]: 94%

NCCc1ccc(O)c(O)c1 [Dopamine (DA, 2), dopamine]
(E p)a Oxidation ([6]; pH 6.0): 354 mV | (E p)c Reduction ([6]; pH 6.0): 84 mV | E1/2 ([6]; pH 6.0): 219 mV | Ipa/Ipc ([6]; pH 6.0): 2.89 | ΔE p ([6]; pH 6.0): 270 mV | (E p)a Oxidation ([6]; pH 7.4): 178 mV | (E p)c Reduction ([6]; pH 7.4): 54 mV | E1/2 ([6]; pH 7.4): 116 mV | Ipa/Ipc ([6]; pH 7.4): 1.32 | ΔE p ([6]; pH 7.4): 124 mV | E1/2 (mV) at pH 7.4 relative to L-DOPA x 100 [1]: 58% | pK a value [7]: 8.99 ± 0.05 | kSP, O2 (μM^-1 min^-1) at pH 7.5 relative to L-DOPA x 100 for LmbB1 [3]: 6% | Catecholic pKa value relative to L-DOPA x 100 [4]: 102% | CSEV (Å^3) relative to L-DOPA x 100 [5]: 84%

L-DOPA 2,3-dioxygenase from S. hygroscopicus jingganensis (ShjDDO) (Streptomyces hygroscopicus subsp. jinggangensis 5008)
Km ([8]; pH 7.5, 22 °C): 926 ± 169 µM | Km [8, 14]: 759 ± 66 µM | Km ([9]; pH 7.5, 22 °C): 422 ± 94 µM | Km [9, 14]: 1059 ± 246 µM | Km ([10]; pH 7.5, 22 °C): 228 ± 53 µM | Km [10, 14]: 1019 ± 236 µM

B1: L-DOPA 2,3-dioxygenase from S. lincolnensis (LmbB1) (Streptomyces lincolnensis) (protein)
chain: MPSVKSMPPVSVHHVGVQTADLDNSISWYQEFFGCTVSWTLDTFSALTHSRLPGIERLAELRYGDVRFHHIGVKSGAAERSPAEANQFQHVCFAVGSPTELEAWRSRWLELYARGRWTFAVPERATDIDVDKDGVRSFYALDPNGLEYEFTYVPDGPR
Km [11]: 922 ± 152 µM | Km [12]: 131 ± 16 µM | Km [13]: 205 ± 24 µM
